Measurements published in patent publication EP1978023A1, “Pyridazines as fungicides” (Bayer CropScience Aktiengesellschaft, priority 2007, dated 2008).

Assays:
[1] = HPLC reversed-phase C 18; 40°C; 0.1% aqueous formic acid and acetonitrile, linear gradient 10% to 95% acetonitrile
Description: (§1) Die Kalibrierung wurde jeweils mit unverzweigten Alkan-2-onen (3 bis 16 Kohlenstoff Atome) mit bekannten logP Werten durchgeführt (Bestimmung von den logP Werten über die Retentionszeiten durch lineare Interpolation zwischen zwei bestimmten Alkanonen).

Description for physchem: as §1

chromatographic logP (physchem) | log p [1] | SMILES
2.9 |  | CC1(O)OC(=O)C(c2cccs2)=C1c1ccc(Cl)s1 (stereo not shown) [(3), 4-(5-Chlor-2-thienyl)-3-(2-thienyl)-5-hydroxy-5-methylfuran-2(5H)-on]
2.71 |  | Cc1n[nH]c(=O)c(-c2cccs2)c1-c1ccc(Cl)s1 [(4), 5-(5-Chlor-2-thienyl)-4-(2-thienyl)-6-methylpyridazin-3(2H)-on]
3.56 | 3,56 | Cc1nnc(Cl)c(-c2cccs2)c1-c1ccc(Cl)s1 [Beispiel 11, 3-Chlor-5-(5-chlor-2-thienyl)-4-(2-thienyl)-6-methylpyridazin]
